Measurements from patent publication US6737383B1, “Herbicidal oxadiazolidines” (priority 1999, dated 2004).

Assays:
bedstraw = assay: Test B pre/postemergence bedstraw; type: in vivo, Galium aparine
In short: (§1)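 Herbicidal effect was estimated by eye on a ten-point control scale after plants spent twelve to sixteen days in a greenhouse following soil or foliar treatment. Foliar sprays targeted plants at one to four leaves; all doses were formulated in a non-phytotoxic solvent with surfactant.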

corn = assay: Test B pre/postemergence corn; type: in vivo, Zea mays
In short: as §1

wheat = assay: Test B pre/postemergence wheat; type: in vivo, Triticum aestivum
In short: as §1

blackgrass = assay: Test B pre/postemergence blackgrass; type: in vivo, Alopecurus myosuroides
In short: as §1

giant foxtail = assay: Test B pre/postemergence giant foxtail; type: in vivo, Setaria faberii
In short: as §1

morningglory = assay: Test B pre/postemergence morningglory; type: in vivo, Ipomoea hederacea
In short: as §1

bamyardgrass = assay: Test B flood test barnyardgrass; type: in vivo, Echinochloa crus-galli
In short: (§2)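 Flood test on plants grown to the 2-leaf stage; treated plants kept in greenhouse twelve to sixteen days, then visually rated against controls on a 0 (no effect) to 10 (complete control) scale.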

smallflower flatsedge = assay: Test B flood test smallflower flatsedge; type: in vivo, Cyperus difformis
In short: as §2

crabgrass = assay: Test B pre/postemergence crabgrass; type: in vivo, Digitaria sanguinalis
In short: as §1

wild oat = assay: Test B pre/postemergence wild oat; type: in vivo, Avena fatua
In short: as §1

duck salad = assay: Test B flood test duck salad; type: in vivo, Heteranthera limosa
In short: as §2

soybean = assay: Test B pre/postemergence soybean; type: in vivo, Glycine max
In short: as §1

purple nutsedge = assay: Test B pre/postemergence purple nutsedge; type: in vivo, Cyperus rotundus
In short: as §1

cocklebur = assay: Test B pre/postemergence cocklebur; type: in vivo, Xanthium strumarium
In short: as §1

rice = assay: Test B flood test rice; type: in vivo, Oryza sativa
In short: as §2

velvetleaf = assay: Test B pre/postemergence velvetleaf; type: in vivo, Abutilon theophrasti
In short: as §1

surinam grass = assay: Test B pre/postemergence surinam grass; type: in vivo, Brachiaria decumbens
In short: as §1

[1] = Postemergence, Rate 62 g/ha, scale 0 to 10, 0 is no effect, 10 is complete control
[2] = Postemergence, Rate 250 g/ha, scale 0 to 10, 0 no effect, 10 complete control
[3] = Preemergence, Rate 62 g/ha, scale 0 to 10, 0 is no effect, 10 is complete control
[4] = Preemergence, Rate 125 g/ha, scale 0 to 10 (0 no effect, 10 complete control)
[5] = Preemergence, Rate 250 g/ha, scale of 0 to 10 where 0 is no effect and 10 is complete control
[6] = Preemergence, Rate 500 g/ha, scale 0 (no effect) to 10 (complete control)
[7] = Rate 125 g/ha, Postemergence, scale 0 to 10, 0 no effect, 10 complete control
[8] = Rate 500 g/ha, Postemergence, 0 to 10 scale (0 no effect, 10 complete control)
[9] = Rate 125 g/ha, Postemergence section (flood test species), scale 0 to 10, 0 no effect, 10 complete control
[10] = Rate 500 g/ha, Postemergence section of Table B, 0 to 10 scale (0 no effect, 10 complete control)
[11] = flood test, listed under Postemergence, Rate 250 g/ha, scale 0 to 10, 0 no effect, 10 complete control

Cc1ccccc1-n1c(=O)on(C(=O)N(C2=CCOCC2)C(C)C)c1=O [Compound 10]
Bedstraw plant response rating (bedstraw; [1]): 0
Bedstraw plant response rating (bedstraw; [2]): 0
Plant response rating, Bedstraw (bedstraw; [3]): 0
Plant response rating, Bedstraw (bedstraw; [4]): 0
Plant response rating, Bedstraw (bedstraw; [5]): 0
Bedstraw plant response rating (bedstraw; [6]): 0
Bedstraw plant response rating (bedstraw; [7]): 0
Bedstraw plant response rating (bedstraw; [8]): 0
Corn plant response rating (corn; [1]): 0
Corn plant response rating (corn; [2]): 0
Plant response rating, Corn (corn; [3]): 0
Plant response rating, Corn (corn; [4]): 0
Plant response rating, Corn (corn; [5]): 0
Corn plant response rating (corn; [6]): 4
Corn plant response rating (corn; [7]): 0
Corn plant response rating (corn; [8]): 2
Wheat plant response rating (wheat; [1]): 0
Wheat plant response rating (wheat; [2]): 0
Plant response rating, Wheat (wheat; [3]): 0
Plant response rating, Wheat (wheat; [4]): 0
Plant response rating, Wheat (wheat; [5]): 0
Wheat plant response rating (wheat; [6]): 0
Wheat plant response rating (wheat; [7]): 0
Blackgrass plant response rating (blackgrass; [1]): 0
Blackgrass plant response rating (blackgrass; [2]): 4
Plant response rating, Blackgrass (blackgrass; [3]): 1
Plant response rating, Blackgrass (blackgrass; [4]): 4
Plant response rating, Blackgrass (blackgrass; [5]): 8
Blackgrass plant response rating (blackgrass; [6]): 9
Blackgrass plant response rating (blackgrass; [7]): 0
Blackgrass plant response rating (blackgrass; [8]): 7
Giant foxtail plant response rating (giant foxtail; [1]): 2
Giant foxtail plant response rating (giant foxtail; [2]): 8
Plant response rating, Giant foxtail (giant foxtail; [3]): 3
Plant response rating, Giant foxtail (giant foxtail; [4]): 6
Plant response rating, Giant foxtail (giant foxtail; [5]): 9
Giant foxtail plant response rating (giant foxtail; [6]): 9
Giant foxtail plant response rating (giant foxtail; [7]): 5
Giant foxtail plant response rating (giant foxtail; [8]): 8
Morningglory plant response rating (morningglory; [1]): 0
Morningglory plant response rating (morningglory; [2]): 2
Plant response rating, Morningglory (morningglory; [3]): 0
Plant response rating, Morningglory (morningglory; [4]): 0
Plant response rating, Morningglory (morningglory; [5]): 0
Morningglory plant response rating (morningglory; [6]): 0
Morningglory plant response rating (morningglory; [7]): 2
Morningglory plant response rating (morningglory; [8]): 3
Barnyardgrass plant response rating (bamyardgrass; [1]): 0
Barnyardgrass plant response rating (bamyardgrass; [9]): 0
Barnyardgrass plant response rating (bamyardgrass; [10]): 0
Barnyardgrass plant response rating (bamyardgrass; [11]): 0
S. Flatsedge plant response rating (smallflower flatsedge; [1]): 0
S. Flatsedge plant response rating (smallflower flatsedge; [9]): 0
S. Flatsedge plant response rating (smallflower flatsedge; [11]): 0
Crabgrass plant response rating (crabgrass; [1]): 3
Crabgrass plant response rating (crabgrass; [2]): 9
Plant response rating, Crabgrass (crabgrass; [3]): 2
Plant response rating, Crabgrass (crabgrass; [4]): 7
Crabgrass plant response rating (crabgrass; [6]): 7
Crabgrass plant response rating (crabgrass; [7]): 6
Crabgrass plant response rating (crabgrass; [8]): 9
Wild oats plant response rating (wild oat; [1]): 0
Wild oats plant response rating (wild oat; [2]): 0
Plant response rating, Wild oats (wild oat; [4]): 0
Plant response rating, Wild oats (wild oat; [5]): 0
Wild oats plant response rating (wild oat; [6]): 0
Wild oats plant response rating (wild oat; [7]): 0
Ducksalad plant response rating (duck salad; [1]): 0
Ducksalad plant response rating (duck salad; [9]): 0
Ducksalad plant response rating (duck salad; [10]): 0
Ducksalad plant response rating (duck salad; [11]): 0
Soybean plant response rating (soybean; [1]): 3
Soybean plant response rating (soybean; [2]): 3
Plant response rating, Soybean (soybean; [3]): 0
Plant response rating, Soybean (soybean; [4]): 0
Plant response rating, Soybean (soybean; [5]): 0
Soybean plant response rating (soybean; [6]): 0
Soybean plant response rating (soybean; [7]): 3
Nutsedge plant response rating (purple nutsedge; [1]): 0
Nutsedge plant response rating (purple nutsedge; [2]): 0
Plant response rating, Nutsedge (purple nutsedge; [3]): 0
Plant response rating, Nutsedge (purple nutsedge; [4]): 0
Plant response rating, Nutsedge (purple nutsedge; [5]): 0
Nutsedge plant response rating (purple nutsedge; [6]): 0
Nutsedge plant response rating (purple nutsedge; [7]): 0
Nutsedge plant response rating (purple nutsedge; [8]): 0
Cocklebur plant response rating (cocklebur; [1]): 0
Cocklebur plant response rating (cocklebur; [2]): 1
Plant response rating, Cocklebur (cocklebur; [3]): 0
Plant response rating, Cocklebur (cocklebur; [4]): 0
Cocklebur plant response rating (cocklebur; [6]): 0
Cocklebur plant response rating (cocklebur; [7]): 0
Cocklebur plant response rating (cocklebur; [8]): 3
Rice plant response rating (rice; [1]): 0
Rice plant response rating (rice; [9]): 0
Rice plant response rating (rice; [10]): 0
Rice plant response rating (rice; [11]): 0
Velvetleaf plant response rating (velvetleaf; [1]): 0
Velvetleaf plant response rating (velvetleaf; [2]): 0
Plant response rating, Velvetleaf (velvetleaf; [3]): 0
Plant response rating, Velvetleaf (velvetleaf; [4]): 0
Plant response rating, Velvetleaf (velvetleaf; [5]): 0
Velvetleaf plant response rating (velvetleaf; [6]): 0
Velvetleaf plant response rating (velvetleaf; [7]): 0
B. signalgrass plant response rating (surinam grass; [1]): 0
B. signalgrass plant response rating (surinam grass; [2]): 4
Plant response rating, B. signalgrass (surinam grass; [3]): 0
Plant response rating, B. signalgrass (surinam grass; [4]): 5
Plant response rating, B. signalgrass (surinam grass; [5]): 8
B. signalgrass plant response rating (surinam grass; [6]): 8
B. signalgrass plant response rating (surinam grass; [7]): 0
B. signalgrass plant response rating (surinam grass; [8]): 4
